Data as given in patent publication US12297438B2, “Gene expression elements and systems and use thereof” (GENENEER LTD., priority 2019, dated 2025).
Structures can show the parent of a compound that is named as a salt.

Tests used:
[1] = tested on: CCR5 expression in ECE included PBMC cells; conditions: 50 μM spermin
Protocol: Plasmid is transfected in to PBMC cells using standard protocol (lipofectamine) and selected for ECE insertion using NGS analyses. Cells are incubated in CTS™ OpTmizer™ (ThermoFisher A3705001) with or without 50 μM spermin. Cells are then stained with CCR5 antibody (BioLegend 359105) and passed through flow cytometry column to detect the level of CCR5 expression.

[2] = tested on: F293 cells transfected with the ECE-CAS9 plasmid; assay: CAS activity in F293 cells transfected with ECE-CAS9 plasmid (Bpu10I cut/uncut ratio); type: cell-based; conditions: DMEM supplemented with 10 μM BENZ, 48 hours
Excerpt: In one example, the ECE regulatory element of the present invention can be used to determine the expression level of the CRISPR-CAS9 complex (Gene Bank Accession No. KF264451) allowing timely editing of the genome. The viral (Px330) CRISPER CAS system can be acquired from “addgene” (plasmid #117919). The ECE regulatory element is synthesized with the sequence of the BseRI restriction site to produce an expression system of the invention having SEQ ID NO:51, and then to be inserted into the 117919 plasmid (SEQ ID NO:57). The ECE sequence is located within the artificial hybrid intron, known to increase transcription levels.
Plasmid was transfected in to F293 cells by Lipofectamine 3000 (L3000015 ThermoFisher) according to the manufacturer instructions. Immediately following transfection cells were incubated with either DMEM or DMEM supplemented with BENZ for 48 hours.
The sgRNA is designed to target the cyclin D1 gene (Accession BC023620) at the Bpu 10I restriction site (sgRNA=[…], SEQ ID NO:60). The efficiency of the CRISPER assay is determined by extracting the DNA, digesting it with Bpu10I and measuring, by bioanalyser, the ratio between the cut and uncut fragments, uncut indicates an efficient CAS activity.

[3] = tested on: SBEIIb with ECE in transgenic rice; assay: SBEIIb expression and starch content in transgenic rice carrying ECE-SBEIIb; type: in vivo, rice (Nipponbare); conditions: rice grains 10 days post anthesis, activated by BENZ
Excerpt: High levels of the starch branching IIb gene in rice (SBEIIb, GQ150904.1) are typically linked to lower amylose content. Downregulating the activity of SBEIIb can lead to rice seeds with higher amylose content. The SBEIIb coding sequence is cloned from Nipponbare cDNA into pTA vector using the standard PCR reaction. The resulted clone is manipulated to carry the ECE regulatory element. The resulted altered fragment is closed into rice-transformation vector containing the wHMWG promoter and NOS terminator. The vector also contains the hygromycin resistance gene under the control of the CaMV 35S promoter. The vector is transferred into Agrobacterium tumefaciens AGL1. […]
RNA is extracted from rice grains, 10 days post anthesis. cDNA is synthesized from 5 μg of total RNA using cDNA syntheses kit. Quantitative real-time PCR is conducted on 100 ng of cDNA using the SBEIIb primers.
Protein analysis is conducted on soluble native proteins extracted from rice grains obtained 10 days post anthesis. […] Signals are recorded by automatic film processor.
Mature panicles are analyzed for their starch content. Fully developed and mature seeds are collected, weighed, dried and ground and total starch is determined using Total Starch HK Assay (Megazyme) and resistant starch is determined using Resistant Starch Assay Kit (Megazyme).

[4] = tested on: Arabidopsis thaliana protoplasts transformed with syz24-2.1 plasmid comprising the ECE within the GUS intron; assay: GUS reporter expression in Arabidopsis thaliana protoplasts (ECE within GUS intron); type: cell-based
Protocol: Arabidopsis protoplasts were prepared as previously described (Wu F-H et al. 2009. Plant methods 5:16 doi: 10.1186/1746-4811-5-16). Plasmids syz24-2.1 and a control plasmid 5060 (constitutive GUS expression) were transformed (in the presence or without 10 μM BENZ (BZ-CAS 121749-39-1-BZ) into protoplasts (Wu et al., supra). Transfected protoplasts were washed and cultured in W5 solution with or without BENZ (BZ) in 1% bovine serum albumin-coated 15 ml tubes for 16 h at 28° C. to allow expression of the transfected DNA. The GUS expression system enables detection of a functional β-glucuronidase when protoplasts expressing the gene are incubated with the enzyme substrate 5-bromo-4-chloro-3-indolyl glucuronide (X-Glu), where the product of the reaction is a clear blue color. As described hereinabove, the expression system of the invention was introduced into an intron within the GUS encoding gene. […] The following assays were designed: • 1. Non transformed protoplasts • 2. Non transformed protoplasts exposed to 10 μM BENZ • 3. Non transformed protoplasts exposed to 100 μM BENZ • 4. Protoplast transformed with plasmid syz24-2.1 without exposure to BENZ • 5. Protoplast transformed with plasmid syz24-2.1 exposed to 10 μM BENZ • 6. Protoplast transformed with plasmid syz24-2.1 exposed to 100 μM BENZ • 7. Protoplast transformed with plasmid 5060 without exposure to BENZ • 8. Protoplast transformed with plasmid 5060 exposed to 10 μM BENZ • 9. Protoplast transformed with plasmid 5060 exposed to 100 μM BENZ In all assays in which the transformed protoplasts were exposed to BENZ, the transformation and subsequent washes were performed in the presence of the corresponding BENZ concentration (10 or 100 μM). After the last wash, the protoplasts were suspended in W5 buffer containing 10 μM or 100 μM BENZ and placed at 28° C. for 48 h. Thereafter the protoplasts were collected (by spinning at 100gX3 minutes). Protoplasts were resuspended in 0.5 ml 0.5M monitol+0.5 mg X-glucuronide (sigma B5285) and incubated at 37° C. 24 h.

[5] = tested on: Nicotiana benthamiana leaf discs transformed with Pzp 1503/syz24-1.2 plasmid (GUS + the mutated ECE); assay: GUS reporter expression in tobacco leaf discs (β-glucuronidase assay); type: cell-based; conditions: MS buffer with 50 μM BENZ
Protocol: Protocol 5 ml Agrobacterium starter (transfected with the relevant plasmids) were grown with the selection antibiotics at 28° C. with agitation of 350 rpm overnight. Thereafter, the solution was centrifuged for 5 min. at 4500 g. The pellet was resuspended in 10 ml Induction Medium supplemented with the relevant antibiotic and 100 μM Acetosyringone, incubated for 5-6 hours at 28° C., 250 rpm and then centrifuged for 5 min at 4500 g. The bacteria were resuspended in 10 ml Infiltration Medium supplemented with 200 μM Acetosyringone (1M in DMSO). The bacteria density is measured at 660 nm to obtain OD660=1.
Leaf discs were cut from Nicotiana Benthamiana plants and put in 24 wells with 400 μl of the relevant Agrobacterium with or without 50 μM BENZ. Vacuum was applied for 8 min and then slowly released, followed by additional vacuum cycle of 1 min and slow release and incubation for 10 min. The leaf discs were then separated from the Agrobacterium suspension and resuspended with MS buffer with or without 50 μM BENZ and incubated at 24° C. for three days. At the end of the incubation, the leaf discs were subjected to β-glucuronidase (GUS) assay.
β-Glucuronidase (GUS) Assay
• 1. […]

[6] = tested on: transgenic poplar trees with ECE in the CCR gene; assay: Lignin content in transgenic poplar carrying ECE-CCR; type: in vivo, Populus tremula×Populus alba; conditions: transgenic trees upon completion of BENZ treatment cycle
Excerpt: Populus trichocarpa cv. Trichobel CCR cDNA (Accession No. AJ224986) is cloned in to pTA vector using standard PCR reaction. ECE assembled by Gibson in to the middle CCR gene by introducing artificial intron. The resulted sequence is cloned under a tandem repeat of the CaMV 35S constitutive promoter and is transferred into the binary vector pBIG-HYG conferring resistance to hygromycin. Binary vector is transferred into Agrobacterium strain LB4404.
Poplar (Populus tremula×Populus alba) plants are transformed by Agrobacterium as described (Leplé et al. 1992, Plant Cell Rep. 11:137-141.) Transformants are selected by hygromycin resistance. Transformation is confirmed by molecular analysis of the insertions.
Four-to-five-month old greenhouse-grown trees are sprayed daily with 100 μM BENZ during a period of 6 months. […]
RT-PCR analysis of CCR is performed at different stages of the growth and development of the trees. […] Quantification of cDNA molecules is performed in five replicates by qPCR machine.
Lignin content is analyzed in samples from different stages of the growth and development of the trees according to Dence, 1992 (Lignin determination. In: Dence C, Lin S, editors. Methods in Lignin Chemistry. Berlin: Springer-Verlag; 1992. pp. 33-61). […] Lignin is then extracted with CH2Cl2, dried over Na2SO4, evaporated under reduced pressure at 40° C., re-dissolved in 1 mL of CH2Cl2 and analyzed by GC-MS

[7] = tested on: hpt gene with ECE in transgenic tobacco seedlings; assay: Conditional expression of hygromycin resistance (hpt) gene with ECE in transgenic tobacco; type: in vivo; conditions: MS media versus MS+20 μM BENZ, seven days
Excerpt: Expression of selection genes is required only during early stages of plant transformation. Following the establishment of a transgenic plant, expression of the selection gene is not required. The hpt gene, conferring resistance to hygromycin, is generated by standard PCR reaction on the pBIGHYG plasmid (binary plasmid) and cloned into pTA vector. The ECE regulatory element is inserted into the hpt gene just after the its ATG start codon by standard Gibson assembly. In addition, the reporting gene GUS: B-glucuronidase is cloned into the pTA vector downstream to the hpt gene under the 35S promoter.
The vector is transferred into Agrobacterium tumefaciens EHAP105.
Tobacco genetic transformation is carried using hygromycin as for selection using a standard transformation protocol. 20 μM BENZ is added to the regeneration and selection medium to facilitate the expression of the selection gene. […] Seeds of heterozygous plants with single insert are selected.
Ten days following planting plants transformed to either MS-based media or remained on MS+20 μM BENZ media. Seven day after, RNA is extracted from transgenic plants. cDNA is synthesized from 20 μg of total RNA using cDNA syntheses kit. Quantitative real-time PCR is conducted on 100 ng of cDNA using the hygromycin-encoding gene primers.

Row | Compound | CCR5 expression [1] | CAS activity (increase of uncut fragments) [2] | SBEIIb protein (Western blot) [3] | β-glucuronidase activity (blue color) ([4]; non-transformed protoplasts, 10 μM or 100 μM BENZ) | β-glucuronidase activity (blue color) ([4]; protoplasts transformed with control plasmid 5060 (constitutive GUS), 10 μM or 100 μM BENZ) | β-glucuronidase activity (blue color) ([4]; protoplasts transformed with syz24-2.1, W5 supplemented with 10 μM BENZ) | β-glucuronidase activity (blue color) ([4]; protoplasts transformed with syz24-2.1, W5 supplemented with 100 μM BENZ) | β-glucuronidase activity (blue color) ([5]; leaf discs transformed with Pzp 1503/syz24-1.2, three days) | β-glucuronidase activity (blue color) ([5]; leaf discs transformed with control plasmid (constitutive GUS)) | lignin levels [6] | expression of hygromycin-encoding gene (quantitative real-time PCR) [7]
1 | NCCCNCCCCNCCCN [spermin, spermine] | expected to increase |  |  |  |  |  |  |  |  |  | 
2 | CCNCCCNCCCNCCCNCC [BENZ, N^1,N^11-Diethylnorspermine tetrahydrochloride] |  | increase in CAS activity | increase in SBEIIb | not observed | β-glucuronidase activity irrespective of the presence of BENZ | only when cells were incubated with W5 supplemented with 100 μM BENZ | showed β-glucuronidase activity | showed β-glucuronidase activity | expressed β-glucuronidase activity | expected to be comparable to transgenic plants, and lower than wild type plants | reduced in the transgenic seedlings when grown on MS media compared to seedling that grow on MS+20 μM BENZ
